In patent US6452005B1, “JAK-3 inhibitors for treating allergic disorders” (Parker Hughes Institute, priority 1999, dated 2002):
Read-outs that look alike come from different tables or passages of the source.

Experiments:
human JAK3 [1] = target: T1, human JAK3 (Homo sapiens, UniProt P52333); test: JAK3 kinase inhibition (Table 1 IC50, immune complex kinase assay); format: biochemical; conditions: for IC50: Table 1, measured inhibition values for JAK3 kinase
T1 construct: KL-2 EBV-transformed human lymphoblastoid B cells (native JAK3 kinase assays); endogenous in cells; host or cells: KL-2 EBV-transformed human lymphoblastoid B cell line
T1 sequence (P52333 1-1124): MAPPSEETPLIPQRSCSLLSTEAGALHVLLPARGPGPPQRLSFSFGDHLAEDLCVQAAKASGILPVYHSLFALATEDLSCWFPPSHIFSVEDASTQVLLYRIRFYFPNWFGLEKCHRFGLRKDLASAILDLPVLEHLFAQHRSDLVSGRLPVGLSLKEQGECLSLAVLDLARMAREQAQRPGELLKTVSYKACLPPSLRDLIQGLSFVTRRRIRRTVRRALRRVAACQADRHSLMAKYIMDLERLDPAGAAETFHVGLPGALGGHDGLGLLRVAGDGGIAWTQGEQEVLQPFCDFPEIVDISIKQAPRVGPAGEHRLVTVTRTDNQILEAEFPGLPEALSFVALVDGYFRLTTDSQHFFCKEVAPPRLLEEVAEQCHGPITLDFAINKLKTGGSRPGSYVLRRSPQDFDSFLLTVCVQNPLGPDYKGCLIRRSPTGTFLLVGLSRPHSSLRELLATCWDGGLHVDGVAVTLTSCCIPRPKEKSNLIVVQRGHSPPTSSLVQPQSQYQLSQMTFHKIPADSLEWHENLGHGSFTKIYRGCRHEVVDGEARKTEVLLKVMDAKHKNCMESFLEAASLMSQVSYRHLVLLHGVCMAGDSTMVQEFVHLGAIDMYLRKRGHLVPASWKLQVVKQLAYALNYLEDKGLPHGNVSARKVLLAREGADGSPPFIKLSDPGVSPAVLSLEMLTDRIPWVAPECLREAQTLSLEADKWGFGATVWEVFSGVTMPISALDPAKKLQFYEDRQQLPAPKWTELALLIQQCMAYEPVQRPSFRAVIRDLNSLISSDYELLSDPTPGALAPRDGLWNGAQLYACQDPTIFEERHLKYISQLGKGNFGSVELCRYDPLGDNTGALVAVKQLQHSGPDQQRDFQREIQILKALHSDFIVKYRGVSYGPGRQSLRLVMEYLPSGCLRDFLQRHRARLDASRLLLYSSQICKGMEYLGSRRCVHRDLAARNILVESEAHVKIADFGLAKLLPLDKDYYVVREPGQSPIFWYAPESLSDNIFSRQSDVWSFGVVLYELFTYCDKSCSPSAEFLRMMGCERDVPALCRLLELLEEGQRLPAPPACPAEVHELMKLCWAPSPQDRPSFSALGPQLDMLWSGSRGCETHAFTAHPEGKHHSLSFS
Protocol: Immune Complex Kinase Assays.
(§1) KL-2 EBV-transformed human lymphoblastoid B cells (native JAK3 kinase assays) or insect ovary cells (recombinant JAK3 kinase assays) were lysed with NP-40 lysis buffer (50 mM Tris, pH 8, 150 mM NaCl, 5 mM EDTA, 1% NP-40, 100 μM sodium orthovanadate, 100 μM sodium molybdate, 8 μg/ml aprotinin, 5 μg/ml leupeptin, and 500 μM PMSF) and centrifuged 10 minutes at 13000×g to remove insoluble material. Samples were immunoprecipitated with antisera prepared against JAK3. The antisera were diluted and immune complexes collected by incubation with 15 μl protein A Sepharose. After 4 washes with NP-40 lysis buffer, the protein A Sepharose beads were washed once in kinase buffer (20 mM MOPS, pH 7.0, 10 mM MgCl2) and resuspended in the same buffer. Reactions were initiated by the addition of 25 μCi γ[^32P] ATP (5000 Ci/mMole) and unlabeled ATP to a final concentration of 5 μM. Reactions were terminated by boiling for 4 min in SDS sample buffer. Samples were run on 9.5% SDS polyacrylamide gels and labeled proteins will be detected by autoradiography. Following electrophoresis, kinase gels were dried onto Whatman 3M filter paper and subjected to phosphoimaging on a Molecular Imager (Bio-Rad, Hercules, Calif.) as well as autoradiography on film. For each drug concentration, a kinase activity index (KA) was determined by comparing the kinase activity in phosphorimager units (PIU) to that of the baseline sample. In some experiments, cold kinase assays were performed, as described (Uckun et. al., 1998, Clin. Cancer Res., 4:901-912).

RBL-2H3 mast cells [2] = test: IgE/antigen-induced activation (cell spreading, microtubule organization) by confocal microscopy; format: cell-based, rat; conditions: 30 μM, two hour incubation
Protocol: RBL-2H3 cells were cultured overnight on 22×22 mm coverslips at a cell density of 0.01×10^6/ml with […] DNP-IgE. Sensitized RBL-2H3 cells were then treated with 30 μM WHI-P131, vehicle, or control compounds WHI-P258 and WHI-P112 prior to challenge with DNP-BSA, as described in the legend of FIG. 4. After stimulation with DNP-BSA for 1 hour, cells were fixed in cold methanol for 15 minutes followed by permeabilization with PBS containing 0.1% Triton X-100. […] After washing 3 times with PBS-0.1% Triton X-100, cells were incubated with fluorescein labeled secondary antibody (Zymed, San Francisco, Calif.) for another 40 minutes. Cells were washed three times to remove unbound antibody. DNA labeling was performed by incubation of coverslips with toto-3 (Molecular Probes, Eugene, Oreg.) for 10 minutes. Excessive dye was washed with PBS-0.1% Triton X-100. Cells were visualized under MRC 1024 Laser Scanning Microscope after mounting with Vectashield (Vector laboratories, Inc, Burlingame, Calif.), as previously reported.
Confocol Microscopy: Staining of mast cells with primary and secondary antibodies followed by confocal laser scanning microscopy was performed as previously described in detail (Uckun et. al., 1998, Clin. Cancer Res., 4:901-912). After staining with appropriate primary and secondary antibodies, cells were washed three times to remove unbound antibody. DNA labeling was performed by incubation of coverslips with toto-3 (Molecular Probes, Eugene, Oreg.) for 10 min. Excessive dye was washed with PBS-0.1% triton X-100. Cells were visualized under MRC 1024 Laser Scanning Microscope after mounting with Vectashield (Vector laboratories, Inc, Burlingame, Calif.).
In a systematic effort aimed at elucidating the biologic consequences of JAK3 inhibition in mast cells, we first sought to determine if the JAK3 inhibitor WHI-P131 could prevent the IgE receptor/FcεRI-mediated activation of mast cells. Since the IgE receptor/FcεRI-mediated activation of mast cells results in a distinct morphologic transformation with marked cell spreading due to membrane ruffling, microtubule formation and actin polymerization (Apgar, 1997), we evaluated the effects of WHI-P131 on the activation-associated transformation of shape and surface topography of RBL-2H3 mast cells using confocal laser scanning microscopy (Ghosh et. al., 1998).

RBL-2H3 mast cells [3] = test: IgE/antigen-induced degranulation and mediator release; format: cell-based, rat; conditions: 1 h preincubation, DNP-BSA challenge; at ≧30 μM
Excerpt: Vehicle treated control RBL-2H3 cells released 45.1±3.1% of their hexosaminidase contents after DNP-BSA challenge. […] Vehicle treated control cells released 11.3±1.3 pg LTC4, and 160±33.0 pg TNFα/10^6 mast cells. The results on LTC4 and TNFα release are expressed as percent of maximum control release from vehicle treated control mast cells. The data points represent the mean±SEM values obtained from 3-6 independent experiments. […] *P<0.05 and **P<0.0001 compared to control as determined by Student's t test.
Supernatants were removed and saved.

[4] = system: JAK3-dependent STAT activation; test: EMSA, IL-2 triggered STAT activation in 32Dc11/IL2Rβ cells; format: cell-based; conditions: 10 μg/ml, 32Dc11/IL2Rβ cells
Protocol: Electrophoretic Mobility Shift Assays (EMSAs). EMSAs were performed to examine the effects of dimethoxyquinazoline compounds on cytokine-induced STAT activation (Goodman et. al., 1998). […] Cells were collected after 15 minutes and resuspended in lysis buffer (100 mM Tris-HCl pH 8.0, 0.5% NP-40, 10% glycerol, […], 0.1 mM NaVO3, 50 mM NaF, 150 mM NaCl, 1 mM DTT, 3 μg/ml Aprotinin, 2 μg/ml Pepstatin A, 1 μg/ml Leupeptin and 0.2 mM PMSF). Lysates were precleared by centrifugation for 30 min. Cell extracts (approximately 10 μg) were incubated with 2 μg of poly(dI-dC) for 30 minutes, followed by a 30 minutes incubation with 1ng of poly. nucleotide kinase-^32P labeled double stranded DNA oligonucleotide representing the IRF-1 STAT DNA binding sequence (Santa Cruz Biotechnology, Santa Cruz, Calif.). Samples were resolved by non-denaturing PAGE and visualized by autoradiography.

mast cell = conditions: cited from earlier work
human JAK3 [5] = target: T1, human JAK3; test: Immune complex kinase assay, JAK3 immunoprecipitated from KL2 EBV-transformed lymphoblastoid B cell line; format: biochemical; conditions: JAK3 immunoprecipitated from KL2 cells
Protocol: as §1, with “Following electrophoresis, kinase gels were dried onto Whatman 3M filter paper and subjected to phosphoimaging on a Molecular Imager (Bio-Rad, Hercules, Calif.) as well as autoradiography on film.” left out, “In some experiments, cold kinase assays were performed, as described (Uckun et. al., 1998, Clin. Cancer Res., 4:901-912).” left out

COc1cc2ncnc(Nc3cc(Br)ccc3Br)c2cc1OC [WHI-P112, 4-(2′,5′-Dibromophenyl)-amino-6,7-dimethoxyquinazoline]
JAK3 inhibitory activity (in words) (human JAK3 [1]): do not inhibit JAK3
IC50 (human JAK3 [1]): > 200 µM
JAK3 inhibitory activity (in words) (human JAK3 [1]; listed as WHI-112): does not inhibit JAK3
IgE/antigen-induced mast cell activation (spreading and microtubule organization) (RBL-2H3 mast cells [2]): unable to produce any significant effects
LTC4 release (RBL-2H3 mast cells [3]): did not inhibit
TNFα release (RBL-2H3 mast cells [3]): did not inhibit
β-hexosaminidase release (degranulation) (RBL-2H3 mast cells [3]): did not inhibit

COc1cc2ncnc(Nc3ccccc3O)c2cc1OC [WHI-P132, 4-(2′-Hydroxylphenyl)-amino-6,7-dimethoxyquinazoline]
JAK3 inhibitory activity (in words) (human JAK3 [1]): inactive
IC50 (human JAK3 [1]): > 300 µM
JAK3-dependent STAT activation after stimulation with IL-2 [4]: not

COc1cc2ncnc(Nc3ccccc3)c2cc1OC [WHI-P258, 4-(Phenyl)-amino-6,7-dimethoxyquinazoline]
JAK3 inhibitory activity (in words) (human JAK3 [1]): lacks JAK3 inhibitory activity
IC50 (human JAK3 [1]): > 300 µM

COc1cc2ncnc(Nc3ccc(C)c(Br)c3)c2cc1OC [WHI-P111, 4-(3′-Bromo-4-methylphenyl)-amino-6,7-dimethoxyquinazoline]
JAK3 inhibitory activity (in words) (human JAK3 [1]): do not inhibit JAK3
IC50 (human JAK3 [1]): > 300 µM
LTC4 release (RBL-2H3 mast cells [3]): did not inhibit
TNFα release (RBL-2H3 mast cells [3]): did not inhibit
β-hexosaminidase release (degranulation) (RBL-2H3 mast cells [3]): did not inhibit

COc1cc2ncnc(Nc3cccc(O)c3)c2cc1OC [WHI-P180, 4-(3′-hydroxyphenyl)-amino-6,7-dimethoxyquinazoline]
IC50 (human JAK3 [1]): 3 µM
potency relative to WHI-P258 (mast cell; IgE/antigen induced mast cell responses): much more potent
mast cell degranulation (β-hexasaminidase release) (mast cell; IgE/antigen induced): effectively inhibited
secretion of newly synthesized mediators (LTC4 release) (mast cell; IgE/antigen induced): effectively inhibited

COc1cc2ncnc(Nc3cc(Br)c(O)c(Br)c3)c2cc1OC [WHI-P97, 4-(3′,5′-Dibromo-4′-hydroxylphenyl)-amino-6,7-dimethoxyquinazoline]
IC50 (human JAK3 [1]): 11 µM
IC50 (human JAK3 [5]): 11 µM

COc1cc2ncnc(Nc3cccc(Br)c3)c2cc1OC [WHI-P79, 4-(3′-Bromophenyl)-amino-6,7-dimethoxyquinazoline]
IC50 (human JAK3 [1]): > 300 µM
